According to article PMC10279719 (Nature Communications, 2023):

How the values were obtained:
14-3-3γ = target: T1, 14-3-3γ (Homo sapiens, UniProt P61981); experiment: ITC, 14-3-3γ titrated into PEAK3 tandem peptides; format: binding; settings: binary, 14-3-3γ (syringe) into peptide (20 µM, cell), 25 °C, 20 mM HEPES pH 7.4, 150 mM NaCl, 1 mM TCEP, single-site fit, mean ± S.E.M. of N = 4 (N = 1 for non-phosphorylated peptide)
T1 construct: 14-3-3γ (UniProt P61981-1; residues 1–247); 8-His tag with TEV protease cleavage site (N); made in house; host or cells: E. coli C41 (DE3)
T1 sequence (P61981 1-247): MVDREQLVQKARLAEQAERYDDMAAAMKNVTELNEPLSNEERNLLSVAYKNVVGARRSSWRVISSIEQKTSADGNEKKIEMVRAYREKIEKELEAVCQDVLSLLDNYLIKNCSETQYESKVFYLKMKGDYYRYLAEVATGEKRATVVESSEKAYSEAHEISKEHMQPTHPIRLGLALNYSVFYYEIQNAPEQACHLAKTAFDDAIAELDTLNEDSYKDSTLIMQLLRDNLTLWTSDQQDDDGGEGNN
Method: (§1) ITC binding experiments were conducted using a MicroCal iTC200 instrument (Malvern Instruments). Titrations were conducted at 25 °C in reverse mode (peptide in cell, protein in syringe) and consisted of 19 injections of 2 μl […] at a rate of 2 s μl^−1 at 90 s time intervals, whilst stirring at 1000 rpm. An initial injection of 0.4 μl protein was made and discarded during data analysis. Proteins (14-3-3ɣ or CrkII^NSH3) were first dialyzed overnight at 4 °C into ITC buffer (20 mM HEPES pH 7.4, 150 mM NaCl, 1 mM TCEP), filtered and degassed under vacuum. […] Following the first titration, excess solution was removed from the cell, and the syringe was washed and dried. […] All data were fitted to a single binding site model to obtain the stoichiometry (N), dissociation constant (KD) and the enthalpy of binding (ΔH), using MicroCal PEAQ-ITC Analysis software (v.1.41).

CrkII^NSH3 = target: T2, CrkII^NSH3 (Homo sapiens, UniProt P46108); experiment: ITC, CrkII NSH3 titrated into PEAK3 tandem peptides (binary) or peptide:14-3-3γ complexes (ternary); format: binding; settings: CrkII NSH3 (400 µM, syringe) into peptide pre-saturated with 14-3-3γ (16.8 µM, cell), 25 °C, HEPES pH 7.4, mean ± S.E.M. of N = 4 (pS69) or N = 1 (non-phosphorylated), read-out: ITC KD, CrkII N-SH3, ternary
T2 construct: CrkII^NSH3; UniProt P46108-1, residues 134–191; 8-His tag with TEV protease cleavage site (N); made in house; host or cells: E. coli C41 (DE3)
Method: as §1

T2 sequence (P46108 134-191): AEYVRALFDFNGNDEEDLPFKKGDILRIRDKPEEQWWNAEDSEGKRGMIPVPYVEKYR

- ITC KD, 14-3-3γ (14-3-3γ): no appreciable binding
- ITC KD, 14-3-3γ (14-3-3γ; 54–74): No binding
- ITC KD, 14-3-3γ (14-3-3γ; listed as PEAK3 tandem): no binding
- Kd (CrkII^NSH3): 0.7 µM
SMILES: CC[C@H](C)[C@H](NC(=O)[C@H](CCCCN)NC(=O)[C@H](CCCCN)NC(=O)[C@@H]1CCCN1C(=O)[C@H](CC(C)C)NC(=O)[C@@H]1CCCN1C(=O)[C@@H]1CCCN1C(=O)[C@@H]1CCCN1C(=O)[C@H](CC(C)C)NC(=O)[C@@H]1CCCN1C(C)=O)C(=O)N[C@@H](CC(C)C)C(=O)N[C@H](C(=O)N[C@@H](CCCNC(=N)N)C(=O)N[C@H](C(=O)N[C@@H](CCC(N)=O)C(=O)N[C@@H](CO)C(=O)N[C@@H](CC(C)C)C(=O)N1CCC[C@H]1C(=O)N[C@H](C(=O)N[C@@H](CCCNC(=N)N)C(=O)N[C@@H](CCCNC(=N)N)C(N)=O)[C@@H](C)O)[C@@H](C)O)[C@@H](C)O (single isomer, unassigned) [PEAK3^tandem]
